Experimental data: patent US6933304B2, “Heteroarylalkanoic acids as integrin receptor antagonists” (Pharmacia Corporation, priority 2000, dated 2005)

Experiments:
[1] = biological target: T1, Human fibrinogen receptor (IIb/IIIa) (Homo sapiens, UniProt P05106+P08514); experiment: Purified IIb/IIIa receptor assay (solid phase receptor assay, SPRA); format: binding; settings: selectivity ratio: IC50 αIIbβ3 (solid phase receptor assay) over IC50 β3
T1 construct: Human fibrinogen receptor (IIb/IIIa) was purified from outdated platelets; from tissue; host or cells: outdated human platelets
Text: Human fibrinogen receptor (IIb/IIIa) was purified from outdated platelets. (Pytela, R., Pierschbacher, M. D., Argraves, S., Suzuki, S., and Rouslahti, E. “Arginine-Glycine-Aspartic acid adhesion receptors”, Methods in Enzymology 144(1987):475-489.) Human vitronectin was purified from fresh frozen plasma as described in Yatohgo, T., Izumi, M., Kashiwagi, H., and Hayashi, M., “Novel purification of vitronectin from human plasma by heparin affinity chromatography,” Cell Structure and Function 13(1988):281-292. Biotinylated human vitronectin was prepared by coupling NHS-biotin from Pierce Chemical Company (Rockford, IL) to purified vitronectin as previously described. (Charo, I. F., Nannizzi, L., Phillips, D. R., Hsu, M. A., Scarborough, R. M., “Inhibition of fibrinogen binding to GP IIb/IIIa by a GP IIIa peptide”, J. Biol. Chem. 266(3)(1991): 1415-1421.) Assay buffer, OPD substrate tablets, and RIA grade BSA were obtained from Sigma (St. Louis, Mo.). Anti-biotin antibody was obtained from Sigma (St. Louis, Mo.). Nalge Nunc-Immuno microtiter plates were obtained from (Rochester, N.Y.). ADP reagent was obtained from Sigma (St. Louis, Mo.).
This assay is essentially the same reported in Niiya, K., Hodson, E., Bader, R., Byers-Ward, V. Koziol, J. A., Plow, E. F. and Ruggeri, Z. M., “Increased surface expression of the membrane glycoprotein IIb/IIIa complex induced by platelet activation: Relationships to the binding of fibrinogen and platelet aggregation”, Blood 70(1987):475-483. The purified human fibrinogen receptor (IIb/IIIa) was diluted from stock solutions to 1.0 μg/mL in Tris-buffered saline containing 1.0 mM Ca^++, Mg^++, and Mn^++, pH 7.4 (TBS^+++). The diluted receptor was immediately transferred to Nalge Nunc-Immuno microtiter plates at 100 μL/well (100 ng receptor/well). The plates were sealed and incubated overnight at 4° C. to allow the receptors to bind to the wells. All remaining steps were at room temperature. The assay plates were emptied and 200 μL of 1% RIA grade BSA in TBS^+++ (TBS^+++/BSA) were added to block exposed plastic surfaces. Following a 2 hour incubation, the assay plates were washed with TBS^+++ using a 96 well plate washer. Logarithmic serial dilution of the test compound and controls were made starting at a stock concentration of […] and using 2 nM biotinylated vitronectin in TBS^+++/BSA as the diluent. This premixing of labeled ligand with test (or control) ligand, and subsequent transfer of 50 μL aliquots to the assay plate was carried out with a CETUS Propette robot; the final concentration of the labeled ligand was 1 nM and the highest concentration of test compound was 1.0×10^−4 M. The competition occurred for two hours after which all wells were washed with a plate washer as before. Affinity purified horseradish peroxidase labeled goat anti-biotin antibody was diluted 1:2000 in TBS^+++/BSA and 125 μL were added to each well. After 45 minutes, the plates were washed and incubated with […] substrate in 100 mM/L citrate buffer, pH 5.0. The plate was read with a microtiter plate reader at a wavelength of 450 nm and when the maximum-binding control wells reached an absorbance of about 1.0, the final A450 were recorded for analysis. The data were analyzed using a macro written for use with the EXCELJ spreadsheet program. The mean, standard deviation, and %CV were determined for duplicate concentrations. The mean A450 values were normalized to the mean of four maximum-binding controls (no competitor added)(B-MAX). The normalized values were subjected to a four parameter curve fit algorithm, [Robard et al., Int.

[2] = biological target: T2, αVβ6 (HT-29 human colon carcinoma cells) (Homo sapiens, UniProt P06756+P18564); experiment: HT-29 cell adhesion assay (adhesion to immobilized LAP); format: cell-based; settings: selectivity ratio: IC50 αVβ6 (HT-29) over IC50 β3
T2 construct: endogenous in cells; host or cells: HT-29 human colon carcinoma cells
Method: To evaluate compound potency for membrane-bound αVβ6 an additional cell-based adhesion assay was established using the HT-29 human colon carcinoma cell line. High surface expression of αVβ6 on HT-29 cells was confirmed by flow cytometry. Conditions were established in which cell adhesion to immobilized human latency associated peptide (LAP) was mediated by the αVβ6, as determined by a panel of integrin-specific, neutralizing monoclonal antibodies. Briefly, cells were incubated with inhibitor in the presence of 200 uM Mn^2+, allowed to adhere to immobilized LAP, washed, and adherent cells are detected by quantifying endogenous alkaline phosphatase using para-nitrophenyl phosphate. An 8-point dose-response curve using either 10-fold or 3-fold dilutions of compound was evaluated by fitting a four-parameter logistic, nonlinear model (using SAS). The compounds evaluated were relatively ineffective at inhibition of αVβ6-mediated cell adhesion. The selective antagonism of the αVβ3 integrin is viewed as desirable in this class of compounds, as αVβ6 may also play a role in normal physiological processes of tissue repair and cellular turnover that routinely occur in the skin and pulmonary tissues.

[3] = biological target: T3, αVβ3 integrin (293-β3 cells) (Homo sapiens, UniProt P05106+P06756); experiment: 293-β3 cell adhesion assay (adhesion to immobilized vitronectin); format: cell-based; settings: 200 uM Mn2+, read-out: 293-β3 (IC50 <10 μM)
T3 construct: expressed in transfected cells; host or cells: 293 human embryonic kidney cells (293-β3)
Text: While the β3 subunit of αVβ3 is only known to complex with αV or αIIb, the αV subunit complexes with multiple β subunits. The three αV integrins most homologous with αVβ3 are αVβ1, αVβ5 and αVβ6, with 43%, 56% and 47% amino acid identity in the β subunits, respectively. To evaluate the selectivity of compounds between the integrins αVβ3 and αVβ6, cell-based assays were established using the 293 human embryonic kidney cell line. 293 cells express αVβ1, but little to no detectable αVβ3 or αVβ6. cDNAs for β3 and β6 were transfected separately into 293 cells to generate 293-β3 and 293-β6 cells, respectively. High surface expression of αVβ3 and αVβ6 was confirmed by flow cytometry. Conditions were established for each cell line in which cell adhesion to immobilized human vitronectin was mediated by the appropriate integrin, as determined by a panel of integrin-specific, neutralizing monoclonal antibodies. Briefly, cells were incubated with inhibitor in the presence of 200 uM Mn^2+, allowed to adhere to immobilized vitronectin, washed, and adherent cells are detected endogenous alkaline phosphatase and para-nitrophenyl phosphate. An 8-point dose-response curve using either 10-fold or 3-fold dilutions of compound was evaluated by fitting a four-parameter logistic, nonlinear model (using SAS).

T1 sequence (P08514 32-887 limits assumed): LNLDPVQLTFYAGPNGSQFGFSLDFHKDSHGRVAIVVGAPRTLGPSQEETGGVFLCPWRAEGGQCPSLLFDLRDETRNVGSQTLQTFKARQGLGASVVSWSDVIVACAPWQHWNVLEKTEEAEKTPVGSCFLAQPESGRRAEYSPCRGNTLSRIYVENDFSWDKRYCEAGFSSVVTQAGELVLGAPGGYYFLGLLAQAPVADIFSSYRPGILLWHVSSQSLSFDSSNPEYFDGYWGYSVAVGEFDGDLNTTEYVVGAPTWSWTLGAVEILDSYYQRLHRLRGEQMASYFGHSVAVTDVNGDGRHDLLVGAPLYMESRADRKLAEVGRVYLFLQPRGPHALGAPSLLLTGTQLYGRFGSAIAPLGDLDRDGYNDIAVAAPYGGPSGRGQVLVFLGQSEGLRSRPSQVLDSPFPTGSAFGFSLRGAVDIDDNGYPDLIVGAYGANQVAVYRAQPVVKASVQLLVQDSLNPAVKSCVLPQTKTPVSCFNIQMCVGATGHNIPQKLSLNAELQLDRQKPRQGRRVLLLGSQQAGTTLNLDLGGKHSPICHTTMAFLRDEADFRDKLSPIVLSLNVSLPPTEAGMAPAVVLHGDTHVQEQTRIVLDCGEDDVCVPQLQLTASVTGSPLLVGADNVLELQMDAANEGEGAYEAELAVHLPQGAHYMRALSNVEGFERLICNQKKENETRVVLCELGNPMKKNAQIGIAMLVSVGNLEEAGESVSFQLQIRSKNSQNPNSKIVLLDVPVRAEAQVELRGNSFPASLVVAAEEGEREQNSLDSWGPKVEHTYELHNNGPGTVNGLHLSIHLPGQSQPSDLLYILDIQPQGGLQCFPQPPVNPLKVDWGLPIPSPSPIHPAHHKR
T1 sequence (P08514 891-1039 partner limits assumed): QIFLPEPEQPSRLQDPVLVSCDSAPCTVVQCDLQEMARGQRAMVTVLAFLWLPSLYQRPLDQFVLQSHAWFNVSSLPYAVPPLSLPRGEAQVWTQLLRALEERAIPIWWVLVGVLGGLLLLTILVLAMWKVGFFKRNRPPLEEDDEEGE
T1 sequence (P05106 27-788): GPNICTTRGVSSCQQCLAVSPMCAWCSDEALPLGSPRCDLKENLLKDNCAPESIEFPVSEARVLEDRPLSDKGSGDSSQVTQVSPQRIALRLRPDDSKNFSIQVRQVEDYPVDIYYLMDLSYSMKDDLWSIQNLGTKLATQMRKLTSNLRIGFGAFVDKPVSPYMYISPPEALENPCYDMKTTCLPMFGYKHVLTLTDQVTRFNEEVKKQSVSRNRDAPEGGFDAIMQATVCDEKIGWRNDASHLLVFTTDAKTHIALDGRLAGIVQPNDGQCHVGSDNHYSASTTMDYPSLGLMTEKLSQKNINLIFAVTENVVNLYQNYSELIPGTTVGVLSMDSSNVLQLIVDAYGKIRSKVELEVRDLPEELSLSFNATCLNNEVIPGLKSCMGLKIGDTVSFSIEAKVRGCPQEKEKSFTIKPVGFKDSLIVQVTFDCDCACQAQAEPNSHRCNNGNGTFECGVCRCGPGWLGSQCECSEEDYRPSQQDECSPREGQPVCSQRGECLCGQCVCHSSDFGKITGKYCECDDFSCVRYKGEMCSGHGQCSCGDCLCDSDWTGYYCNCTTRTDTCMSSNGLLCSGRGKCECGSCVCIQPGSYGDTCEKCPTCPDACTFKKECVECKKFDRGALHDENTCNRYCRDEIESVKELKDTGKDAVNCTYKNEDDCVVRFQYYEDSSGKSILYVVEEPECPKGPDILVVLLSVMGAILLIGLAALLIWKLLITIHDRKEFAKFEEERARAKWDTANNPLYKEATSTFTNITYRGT
T3 sequence (P06756 31-889 limits assumed): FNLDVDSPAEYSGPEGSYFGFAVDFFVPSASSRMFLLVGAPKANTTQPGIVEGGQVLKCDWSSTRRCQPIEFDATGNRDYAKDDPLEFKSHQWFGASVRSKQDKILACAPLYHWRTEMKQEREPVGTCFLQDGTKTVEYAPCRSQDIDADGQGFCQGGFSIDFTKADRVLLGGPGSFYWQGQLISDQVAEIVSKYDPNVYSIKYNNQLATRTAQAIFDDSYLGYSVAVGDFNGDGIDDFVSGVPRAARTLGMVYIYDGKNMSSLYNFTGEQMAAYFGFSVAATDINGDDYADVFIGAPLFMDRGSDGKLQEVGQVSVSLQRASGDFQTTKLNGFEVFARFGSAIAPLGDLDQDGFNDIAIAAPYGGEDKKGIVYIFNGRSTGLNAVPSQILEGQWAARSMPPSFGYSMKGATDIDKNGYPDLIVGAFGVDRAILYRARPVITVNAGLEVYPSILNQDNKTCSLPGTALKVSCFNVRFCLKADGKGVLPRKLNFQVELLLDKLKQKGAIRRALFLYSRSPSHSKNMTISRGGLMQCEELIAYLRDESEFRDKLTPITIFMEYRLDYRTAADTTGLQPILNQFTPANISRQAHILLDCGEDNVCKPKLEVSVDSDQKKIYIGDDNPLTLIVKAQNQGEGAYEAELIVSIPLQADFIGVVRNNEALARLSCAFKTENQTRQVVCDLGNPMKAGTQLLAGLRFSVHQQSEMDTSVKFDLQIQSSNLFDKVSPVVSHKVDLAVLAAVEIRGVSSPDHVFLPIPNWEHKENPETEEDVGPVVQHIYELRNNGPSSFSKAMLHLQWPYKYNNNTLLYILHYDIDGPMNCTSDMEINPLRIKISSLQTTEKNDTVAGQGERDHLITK
T3 sequence (P06756 891-1048 partner limits assumed): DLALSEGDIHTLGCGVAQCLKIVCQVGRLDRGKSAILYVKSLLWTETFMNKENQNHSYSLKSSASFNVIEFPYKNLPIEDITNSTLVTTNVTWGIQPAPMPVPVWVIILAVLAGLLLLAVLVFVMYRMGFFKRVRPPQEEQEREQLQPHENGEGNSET
T3 sequence (P05106 27-788): as the sequence (P05106 27-788) above
T2 sequence (P06756 31-889 limits assumed): as the sequence (P06756 31-889 limits assumed) above
T2 sequence (P06756 891-1048 partner limits assumed): as the sequence (P06756 891-1048 partner limits assumed) above
T2 sequence (P18564 22-788): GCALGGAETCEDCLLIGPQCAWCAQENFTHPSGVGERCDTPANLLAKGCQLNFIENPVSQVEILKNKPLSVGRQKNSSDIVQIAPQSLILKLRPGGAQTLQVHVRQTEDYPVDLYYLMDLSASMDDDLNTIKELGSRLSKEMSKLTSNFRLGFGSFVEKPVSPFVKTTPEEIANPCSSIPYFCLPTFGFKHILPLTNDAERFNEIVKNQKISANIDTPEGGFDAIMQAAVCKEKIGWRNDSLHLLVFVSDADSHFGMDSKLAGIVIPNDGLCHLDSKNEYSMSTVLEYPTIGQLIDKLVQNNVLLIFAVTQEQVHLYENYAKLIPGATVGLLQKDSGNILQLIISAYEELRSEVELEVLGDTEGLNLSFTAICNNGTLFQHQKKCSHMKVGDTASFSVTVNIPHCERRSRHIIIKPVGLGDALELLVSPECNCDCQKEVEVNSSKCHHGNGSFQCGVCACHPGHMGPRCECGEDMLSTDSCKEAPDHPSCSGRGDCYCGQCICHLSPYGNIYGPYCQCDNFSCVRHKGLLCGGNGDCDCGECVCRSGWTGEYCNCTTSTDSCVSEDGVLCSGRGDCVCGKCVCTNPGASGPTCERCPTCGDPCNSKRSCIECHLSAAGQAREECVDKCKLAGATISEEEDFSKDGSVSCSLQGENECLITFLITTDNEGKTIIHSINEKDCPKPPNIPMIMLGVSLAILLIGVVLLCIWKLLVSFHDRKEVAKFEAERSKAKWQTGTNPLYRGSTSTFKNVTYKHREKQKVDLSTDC

SPRA AIIbB3 Selectivity* IIbIIIa/β3 [1] | HT-29 β-6 Selectivity* (β6/β3) [2] | IC50 [3] [µM] | Compound
+++ (Selectivity Ratio >100 +++) | +++ (Selectivity Ratio >100 +++) | < 10 | CC(C)(CC(=O)O)Cc1nc(CCCc2ccc3c(n2)NCCC3)no1.O=C(O)C(F)(F)F [Example 12, 3,3-dimethyl-4-{3-[3-(5,6,7,8-tetrahydro-1,8-naphthyridin-2-yl)propyl]-1,2,4-oxadiazol-5-yl}butanoic acid]
+++ (Selectivity Ratio >100 +++) | +++ (Selectivity Ratio >100 +++) | < 10 | O=C(O)C(F)(F)F.O=C(O)CC(Cc1nc(CCCc2ccc3c(n2)NCCC3)no1)c1cnc2ccccc2c1 (stereo not drawn) [Example 18, 3-quinolin-3-yl-4-{3-[3-(5,6,7,8-tetrahydro-1,8-naphthyridin-2-yl)propyl]-1,2,4-oxadiazol-5-yl}butanoic acid]
++ (Selectivity Ratio of 10-100 ++) | +++ (Selectivity Ratio >100 +++) | < 10 | COc1cccc(C(CC(=O)O)Cc2nc(CCCCNc3ccccn3)no2)c1.O=C(O)C(F)(F)F (stereo not drawn) [Example 21, 3-(3-methoxyphenyl)-4-{3-[4-(pyridin-2-ylamino)butyl]-1,2,4-oxadiazol-5-yl}butanoic acid]
++ (Selectivity Ratio of 10-100 ++) | ++ (Selectivity Ratio of 10-100 ++) | < 10 | CCC(CC)(CC(=O)O)Cc1nc(CCCc2ccc3c(n2)NCCC3)no1 [Example 45, 3-Ethyl-3-{3-[3-(5,6,7,8-tetrahydro-[1,8]naphthyridin-2-yl)-propyl]-[1,2,4]oxadiazol-5-ylmethyl}-pentanoic acid]
+++ (Selectivity Ratio >100 +++) | +++ (Selectivity Ratio >100 +++) | < 10 | COc1cccc(C(CC(=O)O)Cc2nc(CCCc3ccc4c(n3)NCCC4)no2)c1.O=C(O)C(F)(F)F (stereo not drawn) [Example 20, 3-(3-methoxyphenyl)-4-{3-[3-(5,6,7,8-tetrahydro-1,8-naphthyridin-2-yl)propyl]-1,2,4-oxadiazol-5-yl}butanoic acid]
+++ (Selectivity Ratio >100 +++) | +++ (Selectivity Ratio >100 +++) | < 10 | O=C(O)C(F)(F)F.O=C(O)CC(Cc1nc(CCCc2ccc3c(n2)NCCC3)no1)c1cccc(C(F)(F)F)c1 (stereo not drawn) [Example 28, 4-{3-[3-(5,6,7,8-tetrahydro-1,8-naphthyridin-2-yl)propyl]-1,2,4-oxadiazol-5-yl}-3-[3-(trifluoromethyl)phenyl]butanoic acid]
++ (Selectivity Ratio of 10-100 ++) | ++ (Selectivity Ratio of 10-100 ++) | < 10 | CC(C)C(C)(CC(=O)O)Cc1nc(CCCCNc2ccccn2)no1 (stereo not drawn) [Example 39, 3,4-dimethyl-3-({3-[4-(pyridin-2-ylamino)butyl]-1,2,4-oxadiazol-5-yl}methyl)-pentanoic acid]
+++ (Selectivity Ratio >100 +++) | +++ (Selectivity Ratio >100 +++) | < 10 | COc1ccc(C(CC(=O)O)Cc2nc(CCCc3ccc4c(n3)NCCC4)no2)cc1.O=C(O)C(F)(F)F (stereo not drawn) [Example 22, 3-(4-methoxyphenyl)-4-{3-[3-(5,6,7,8-tetrahydro-1,8-naphthyridin-2-yl)propyl]-1,2,4-oxadiazol-5-yl}butanoic acid]
+++ (Selectivity Ratio >100 +++) | +++ (Selectivity Ratio >100 +++) | < 10 | O=C(O)C(F)(F)F.O=C(O)CC(Cc1nc(CCCc2ccc3c(n2)NCCC3)no1)c1ccc(F)cc1 (stereo not drawn) [Example 26, 3-(4-fluorophenyl)-4-{3-[3-(5,6,7,8-tetrahydro-1,8-naphthyridin-2-yl)propyl]-1,2,4-oxadiazol-5-yl}butanoic acid trifluoroacetate]
+++ (Selectivity Ratio >100 +++) | +++ (Selectivity Ratio >100 +++) | < 10 | O=C(O)C(F)(F)F.O=C(O)CC(Cc1nc(CCCc2ccc3c(n2)NCCC3)no1)c1cccc(F)c1 (stereo not drawn) [Example 24, 3-(3-fluorophenyl)-4-{3-[3-(5,6,7,8-tetrahydro-1,8-naphthyridin-2-yl)propyl]-1,2,4-oxadiazol-5-yl}butanoic acid]
++ (Selectivity Ratio of 10-100 ++) | +++ (Selectivity Ratio >100 +++) | < 10 | O=C(O)C(F)(F)F.O=C(O)CC1(Cc2nc(CCCCNc3ccccn3)no2)CCCC1 [Example 4, [1-({3-[4-(pyridin-2-ylamino)butyl]-1,2,4-oxadiazol-5-yl}methyl)cyclopentyl]-acetic acid]
+++ (Selectivity Ratio >100 +++) | +++ (Selectivity Ratio >100 +++) | < 10 | CCCC(C)(CC(=O)O)Cc1nc(CCCc2ccc3c(n2)NCCC3)no1 (stereo not drawn) [Example 44, 3-Methyl-3-{3-[3-(5,6,7,8-tetrahydro-[1,8]naphthyridin-2-yl)-propyl]-[1,2,4]oxadiazol-5-ylmethyl}-hexanoic acid]
+++ (Selectivity Ratio >100 +++) | +++ (Selectivity Ratio >100 +++) | < 10 | CC(C)C(C)(CC(=O)O)Cc1nc(CCCc2ccc3c(n2)NCCC3)no1 (stereo not drawn) [Example 46, 3,4-Dimethyl-3-{3-[3-(5,6,7,8-tetrahydro-[1,8]naphthyridin-2-yl)-propyl]-[1,2,4]oxadiazol-5-ylmethyl}-pentanoic acid]
